The source of these data is patent publication US20090023694A1, “Contraceptive” (GRUNENTHAL GMBH, priority 2006, published 2009).

The test has as its system GABAA receptors. Put plainly: Influence on the binding of muscimol to GABAA receptors (rat brain). Particulars: 5 nM [3H] muscimol, cerebral rat cortex membranes. The method, then: The following tests for determining the influence of allopregnanolone, 3-α-OH-CMA and 3-β-OH-CMA on the binding of muscimol to GABAA receptors (in rats) are based on the publication of the experimental specifications of Snodgrass, S. R. (Nature, 1979, V273, p. 392-394). The corresponding disclosure is included herein as a reference and is part of the disclosure of the present application.
Membrane preparations of cerebral rat cortex material were prepared. 5 nM [^3H] muscimol was used as a reference substance and 10 μM muscimol was used to determine the nonspecific binding. The substances ([^3H] muscimol, allopregnanolone) were each incubated at the receptor for 10 minutes at a temperature of approximately 4° C. The stock solution (5×10^−2 M) of allopregnanolone was prediluted in 75% DMSO at a ratio of 1:10 and was subsequently further diluted in 25% DMSO at a ratio of 1:5. The final concentration of allopregnanolone in the test was 1×10^−10 M, 1×10^−9 M, 1×10^−8 M, 1×10^−7 M, 1×10^−6 M and 1×10^−5 M respectively. The washing steps and the determination of radioactivity were carried out as previously described under point 1.
The influence of 3-α-OH-CMA and 3-β-OH-CMA on the binding of muscimol to GABAA receptors (in rats) was determined in a similar manner to the method described previously. Instead of allopregnanolone, 3-α-OH-CMA or 3-β-OH-CMA were used.

For `CC(=O)[C@H]1CC[C@H]2[C@@H]3CC[C@H]4C[C@H](O)CC[C@]4(C)[C@H]3CC[C@]12C` [allopregnanolone, reference compound], where the note is “1 μM test substance”, the “increase of binding of radioactively labelled muscimol” value (“increase” below) is reported as 38%.

In the case of `CC(=O)O[C@]1(C(C)=O)CC[C@H]2[C@@H]3C=C(Cl)C4=C[C@H](O)CC[C@]4(C)[C@H]3CC[C@@]21C` [3-α-OH-CMA, 3α-hydroxy-6-chloro-17α-acetoxy-4,6-pregnadien-20-one], the “increase” value (0.001 μM test substance) is listed as 12%. On to `CC(=O)O[C@]1(C(C)=O)CC[C@H]2[C@@H]3C=C(Cl)C4=C[C@@H](O)CC[C@]4(C)[C@H]3CC[C@@]21C` [3-β-OH-CMA, 3β-hydroxy-6-chloro-17α-acetoxy-4,6-pregnadien-20-one], for which, for the setting “0.1 μM test substance”, the “increase” value was 31%.
